According to US5602153A, “Method of using 1-arylheteroarylalkyl substituted-1H-1,2,4-triazole compounds for treatment of a giaucoma disorder” (G.D. Searle & Co., priority 1993, dated 1997):
Read-outs that look alike come from different tables or passages of the source.

Columns and labels:
angiotensin II receptor = settings: cited from earlier work; for angiotensin II antagonist activity: binding experiments, functional assays and in vitro / in vivo tests
[1] = molecular target: smooth muscle angiotensin II receptor; assay: Assay A: Angiotensin II Binding Activity (displacement of 125I-AII, rat uterine membrane preparation); settings: rat uterine membranes, 25 °C, 60 min; read-out: IC50 (50% displacement of total specifically bound 125I-AII)
Procedure: Assay A: Anaiotensin II Binding Activity
Compounds of the invention were tested for ability to bind to the smooth muscle angiotensin II receptor using a rat uterine membrane preparation. Angiotensin II (AII) was purchased from Peninsula Labs. ^125 I-angiotensin II (specific activity of 2200 Ci/mmol) was purchased from Du Pont-New England Nuclear. Other chemicals were obtained from Sigma Chemical Co. This assay was carried out according to the method of Douglas et al [Endocrinology, 106, 120-124 (1980)]. Rat uterine membranes were prepared from fresh tissue. All procedures were carried out at 4° C. Uteri were stripped of fat and homogenized in phosphate-buffered saline at pH 7.4 containing 5 mM EDTA. The homogenate was centrifuged at 1500×g for 20 min., and the supernatant was recentrifuged at 100,000×g for 60 min. The pellet was resuspended in buffer consisting of 2 mM EDTA and 50 mM Tris-HCl (pH 7.5) to a final protein concentration of 4 mg/ml. Assay tubes were charged with 0.25 ml of a solution containing 5 mM MgCl2, 2 mM EDTA, 0.5% bovine serum albumin, 50 mM Tris-HCl, pH 7.5 and ^125 I-AII (approximately 10^5 cpm) in the absence or in the presence of unlabelled ligand. The reaction was initiated by the addition of membrane protein and the mixture was incubated at 25° C. for 60 min. The incubation was terminated with ice-cold 50 mM Tris-HDl (pH 7.5) and the mixture was filtered to separate membrane-bound labelled peptide from the free ligand. The incubation tube and filter were washed with ice-cold buffer. Filters were assayed for radioactivity in a Micromedic gamma counter. Nonspecific binding was defined as binding in the presence of 10 μM of unlabelled AII. Specific binding was calculated as total binding minus nonspecific binding. The receptor binding affinity of an AII antagonist compound was indicated by the concentration (IC50) of the tested AII antagonist which gives 50% displacement of the total specifically bound ^125 I-AII from the high affinity AII receptor. Binding data were analyzed by a nonlinear least-squares curve fitting program.

pressor response to AII = assay: Assay C: In Vivo Intragastric Pressor Assay Response for AII Antagonists; set-up: species or system rat (male Sprague-Dawley); settings: 3 mg/kg i.g., rat, AII 30 ng/kg bolus; for inhibition in vivo at 3 mg/kg: po
Procedure: Assay C: In Vivo Intragastric Pressor Assay Response for AII Antagonists of the Invention
Male Sprague-Dawley rats weighing 225-300 grams were anesthetized with methohexital (30 mg/kg, i.p.) and catheters were implanted into the femoral artery and vein. The catheters were tunneled subcutaneously to exit dorsally, posterior to the head and between the scapulae. The catheters were filled with heparin (1000 units/ml of saline). The rats were returned to their cage and allowed regular rat chow and water ad libitum. After full recovery from surgery (3-4 days), rats were placed in Lucite holders and the arterial line was connected to a pressure transducer. Arterial pressure was recorded on a Gould polygraph (mmHg). Angiotensin II was administered as a 30 ng/kg bolus via the venous catheter delivered in a 50 μl volume with a 0.2 ml saline flush. The pressor response in mmHg was measured by the difference from pre-injectionarterial pressure to the maximum pressure achieved. The AII injection was repeated every 10 minutes until three consecutive injections yielded responses within 4 mmHg of each other. These three responses were then averaged and represented the control response to AII. The test compound was suspended in 0.5% methylcellulose in water and was administered by gavage. The volume administered was 2 ml/kg body weight. The standard dose was 3 mg/kg. Angiotensin II bolus injections were given at 30, 45, 60, 75, 120, 150, and 180 minutes after gavage. The pressor response to AII was measured at each time point. The rats were then returned to their cage for future testing. A minimum of 3 days was allowed between tests. Percent inhibition was calculated for each time point following gavage by the following formula: [(Control Response-Response at time point)/Control Response]×100.

rabbit aortic rings = molecular target: T1, rabbit aortic rings (Oryctolagus cuniculus, UniProt P34976); assay: Assay B: In Vitro Vascular Smooth Muscle-Response for AII (antagonist activity in rabbit aortic rings); assay type: cell-based, rabbit (male New Zealand white); settings: antagonist 10^-5 M for 5 min, AII challenge
T1 construct: The thoracic aorta was removed, cleaned of adherent fat and connective tissue; from tissue; host or cells: thoracic aorta rings, endothelium removed, male New Zealand white rabbit
T1 sequence (P34976 1-359): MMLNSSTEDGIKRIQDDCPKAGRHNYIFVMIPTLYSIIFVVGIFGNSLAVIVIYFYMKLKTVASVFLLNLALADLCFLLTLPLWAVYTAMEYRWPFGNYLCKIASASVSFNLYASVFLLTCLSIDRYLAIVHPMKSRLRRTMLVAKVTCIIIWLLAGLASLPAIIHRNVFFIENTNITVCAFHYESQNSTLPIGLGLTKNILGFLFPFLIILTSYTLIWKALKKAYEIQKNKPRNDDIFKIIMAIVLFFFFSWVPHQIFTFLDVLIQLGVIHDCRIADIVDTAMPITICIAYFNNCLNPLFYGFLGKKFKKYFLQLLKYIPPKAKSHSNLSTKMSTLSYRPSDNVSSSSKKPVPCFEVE
Procedure: Assay B: In Vitro Vascular Smooth Muscle-Response for AII The compounds of the invention were tested for antagonist activity in rabbit aortic rings. Male New Zealand white rabbits (2-2.5 kg) were sacrificed using an overdose of pentobarbital and exsanguinated via the carotid arteries. The thoracic aorta was removed, cleaned of adherent fat and connective tissue and then cut into 3-mm ring segments. The endothelium was removed from the rings by gently sliding a rolled-up piece of filter paper into the vessel lumen. The rings were then mounted in a water-jacketed tissue bath, maintained at 37° C., between moveable and fixed ends of a stainless steel wire with the moveable end attached to an FT03 Grass transducer coupled to a Model 7D Grass Polygraph for recording isometric force responses. The bath was filled with 20 ml of oxygenated (95% oxygen/5% carbon dioxide) Krebs solution of the following composition (mM): 130 NaCl, 15 NaHCO3, 15 KCl, 1.2 NaH2 PO4, 1.2 MgSO4, 2.5 CaCl2, and 11.4 glucose. The preparations were equilibrated for one hour before approximately one gram of passive tension was placed on the rings. Angiotensin II concentration-response curves were then recorded (3×10^-10 to 1×10^-5 M). Each concentration of AII was allowed to elicit its maximal contraction, and then AII was washed out repeatedly for 30 minutes before rechallenging with a higher concentration of AII. Aorta rings were exposed to the test antagonist at 10^-5 M for 5 minutes before challenging with AII. Adjacent segments of the same aorta ring were used for all concentration-response curves in the presence or absence of the test antagonist. The effectiveness of the test compound was expressed in terms of pA2 values and were calculated according to H.O. Schild [Br. J. Pharmacol. Chemother., 2, 189-206 (1947)]. The pA2 value is the concentration of the antagonist which increases the EC50 value for AII by a factor of two. Each test antagonist was evaluated in aorta rings from two rabbits.

[2] = first of two rabbits, read-out: pA2 (first value) (converted)
[3] = second of two rabbits, read-out: pA2 (converted)

IC50 [1]	Kb (rabbit aortic rings; [2])	Kb (rabbit aortic rings; [3])	Compound	angiotensin II antagonist activity (angiotensin II receptor)	Duration (of inhibition of AII pressor response) (pressor response to AII)	inhibition in vivo at 3 mg/kg (pressor response to AII)	residual agonist activity (angiotensin II receptor)
			CCCCc1nc(Cl)c(CC(=O)O)n1Cc1ccccc1[N+](=O)[O-] [2-butyl-4-chloro-1-(2-nitrobenzyl)imidazole-5-acetic acid]	specific competitive angiotensin II antagonist activity			
			CCCCc1nc(Cl)c(CC(=O)O)n1Cc1ccccc1Cl [2-n-butyl-4-chloro-1-(2-chlorobenzyl)imidazole-5-acetic acid]	specific competitive angiotensin II antagonist activity			
9.4 nM	5.5 nM	3.89 nM	CCCCc1nc(C(F)(F)CCC)nn1Cc1ccc(-c2ccccc2-c2nnn[nH]2)nc1 [Example 9, 5-[2-[5-[[3-(1,1-difluorobutyl)-5-butyl-1H-1,2,4-triazol-1-yl)methyl]-2-pyridinyl]phenyl]-1H-tetrazole]		180 min	20%	
20 nM	20.9 nM	31.6 nM	CCCCc1nc(C(F)(F)CCC)n(Cc2ccc(-c3ccccc3-c3nnn[nH]3)nc2)n1 [Example 10, 5-[2-[5-[[3-butyl-5-(1,1-difluorobutyl)-1H-1,2,4-triazol-1-yl)methyl]-2-pyridinyl]phenyl]-1H-tetrazole]			10%	
4.4 nM			CCCCc1nc(CC(C)(C)C)nn1Cc1ccc(-c2ccccc2-c2nnn[nH]2)nc1 [Example 11, 5-[2-[5-[[3-neopentyl-5-butyl-1H-1,2,4-triazol-1-yl)methyl]-2-pyridinyl]phenyl]-1H-tetrazole]		> 180 min	20%	
43 nM			CCCCc1nc(CC(C)(C)C)n(Cc2ccc(-c3ccccc3-c3nnn[nH]3)nc2)n1 [Example 12, 5-[2-[5-[(3-butyl-5-neopentyl-1H-1,2,4-triazol-1-yl)methyl]-2-pyridinyl]phenyl]-1H-tetrazole]			0%	
12 nM	24.5 nM	34.7 nM	CCCCc1nc(C(=O)N(C)C(C)(C)C)nn1Cc1ccc(-c2ccccc2-c2nnn[nH]2)nc1 [Example 17, 5-[2-[5-[[3-(N-methyl-N-tertbutylamido)-5-butyl-1H-1,2,4-triazol-1-yl)methyl]-2-pyridinyl]phenyl]-1H-tetrazole]		> 180 min	20%	
4.1 nM	3.72 nM	16.6 nM	CCCCc1nc(C(=O)N(C)C(C)(C)C)n(Cc2ccc(-c3ccccc3-c3nnn[nH]3)nc2)n1 [Example 18, 5-[2-[5-[[3-butyl-5-(N-methyl-N-tertbutylamido)-1H-1,2,4-triazol-1-yl)methyl]-2-pyridinyl]phenyl]-1H-tetrazole]		> 180 min	30%	
25 nM			CCCCc1nc(-c2ccccc2Cl)nn1Cc1ccc(-c2ccccc2-c2nnn[nH]2)nc1 [Example 29, 5-[2-[5-[[3-(2-chlorophenyl)-5-butyl-1H-1,2,4-triazol-1-yl)methyl]-2-pyridinyl]phenyl]-1H-tetrazole]		> 180 min	25%	
520 nM			CCCCc1nc(-c2ccccc2Cl)n(Cc2ccc(-c3ccccc3-c3nnn[nH]3)nc2)n1 [Example 30, 5-[2-[5-[[3-butyl-5-(2-chlorophenyl)-1H-1,2,4-triazol-1-yl)methyl]-2-pyridinyl]phenyl]-1H-tetrazole]			0%	
			CNCC(=O)N[C@@H](CCCN=C(N)N)C(=O)N[C@H](C(=O)N[C@@H](Cc1ccc(O)cc1)C(=O)N[C@H](C(=O)N[C@@H](Cc1cnc[nH]1)C(=O)N1CCC[C@H]1C(=O)N[C@@H](C)C(=O)O)C(C)C)C(C)C [Saralasin]				significant residual agonist activity
